# Test system: Jurkat cell line
# Test: PARP cellular chemopotentiation assay (MTS cell viability with and without TMZ)
# Assay type: cell-based
# Conditions: ratio of EC50 for inhibition of cell viability without and with 100 μM TMZ; Jurkat cells, 96 hours of treatment
# Experimental: Potentiation Factor (PF50) Determination from PARP Cellular Chemopotentiation Assay
# Jurkat cell line was maintained according to the supplier (American Type Culture Collection (Rockville, Md.)). Cells were seeded in 96-well tissue culture microplates at 10,000 cells per well and cultured for 24 hours prior to addition of compounds, TMZ (Temozolomide) or DMSO (dimethylsulfoxide) vehicle. After 96 hours of treatment, the conversion of MTS ([3-(4,5-dimethylthiazol-2-yl)-5-(3-carboxymethoxyphenyl)-2-(4-sulfophenyl)-2H-tetrazolium, inner salt], Promega, Madison, Wis.) by metabolically active cells was determined through measuring the OD490 nm with a Spectramax microplate reader (Molecular Devices, San Diego, Calif.). To generate concentration-response curves, cells were treated in duplicate with a range of serial compound dilutions (final DMSO concentration was 0.5%) in the absence or presence of 100 μM TMZ chemoreagent. The percentage of viable cells per well was calculated by correction for background and normalizing against DMSO-treated cells. EC50 values for inhibition of cell viability were calculated using XLfit4 MicroSoft Excel curve-fitting software. Chemopotentiation factor PF50 was calculated as the ratio of EC50 values of cells co-treated without and with TMZ, respectively.
row,SMILES,PF50
1,"O=C1Nc2cc(CN3CCN(c4cccc(O)c4)CC3)cnc2N2CCC[C@@H]12 [Compound 34, (S)-3-((4-(3-hydroxyphenyl)piperazin-1-yl)methyl)-6a,7,8,9-tetrahydropyrido[3,2-e]pyrrolo[1,2-a]pyrazin-6(5H)-one]",≧0
2,"O=C1Nc2cc(CN3CCC(c4ccc(Cl)cc4)CC3)cnc2N2CCC[C@H]12 [Compound 51, (R)-3-((4-(4-chlorophenyl)piperidin-1-yl)methyl)-6a,7,8,9-tetrahydropyrido[3,2-e]pyrrolo[1,2-a]pyrazin-6(5H)-one]",≧0
3,"O=C1Nc2cc(CN3CCN(c4ccc(I)cc4)CC3)cnc2N2CCC[C@@H]12 [Compound 40, (S)-3-((4-(4-iodophenyl)piperazin-1-yl)methyl)-6a,7,8,9-tetrahydropyrido[3,2-e]pyrrolo[1,2-a]pyrazin-6(5H)-one]",>10
4,"CC(C)NC(=O)c1ccc(N2CCN(Cc3cnc4c(c3)NC(=O)[C@@H]3CCCCN43)CC2)nc1 [Compound 76, (S)—N-isopropyl-6-(4-((6-oxo-6,6a,7,8,9,10-hexahydro-5H-dipyrido[1,2-a:3′,2′-e]pyrazin-3-yl)methyl)piperazin-1-yl)nicotinamide]",≧0
5,"N#Cc1ccc(N2CCN(Cc3cnc4c(c3)NC(=O)[C@@H]3CSCCN43)CC2)nc1 [Compound 89, (R)-6-(4-((6-oxo-5,6,6a,7,9,10-hexahydropyrido[3,2-e][1,4]thiazino[4,3-a]pyrazin-3-yl)methyl)piperazin-1-yl)nicotinonitrile]",>10
6,"O=C1Nc2cc(CN3CCN(c4ccc(C(F)(F)F)cn4)CC3)cnc2N2CCC[C@@H]12 [Compound 36, (S)-3-((4-(5-(trifluoromethyl)pyridin-2-yl)piperazin-1-yl)methyl)-6a,7,8,9-tetrahydropyrido[3,2-e]pyrrolo[1,2-a]pyrazin-6(5H)-one]",≧0
7,"O=C1Nc2cc(CN3CCN(c4ccc(F)cc4F)CC3)cnc2N2CCC[C@@H]12 [Compound 15, (S)-3-((4-(2,4-difluorophenyl)piperazin-1-yl)methyl)-6a,7,8,9-tetrahydropyrido[3,2-e]pyrrolo[1,2-a]pyrazin-6(5H)-one]",>500
8,"CCNC(=O)c1ccc(N2CCN(Cc3cnc4c(c3)NC(=O)[C@@H]3CCCCN43)CC2)nc1 [Compound 78, (S)—N-ethyl-6-(4-((6-oxo-6,6a,7,8,9,10-hexahydro-5H-dipyrido[1,2-a:3′,2′-e]pyrazin-3-yl)methyl)piperazin-1-yl)nicotinamide]",>10
9,"O=C1Nc2cc(CN3CCN(c4nc5ccccc5[nH]4)CC3)cnc2N2CCC[C@@H]12 [Compound 39, (S)-3-((4-(1H-benzo[d]imidazol-2-yl)piperazin-1-yl)methyl)-6a,7,8,9-tetrahydropyrido[3,2-e]pyrrolo[1,2-a]pyrazin-6(5H)-one]",≧0
10,"Cc1ccc(N2CCN(Cc3cnc4c(c3)NC(=O)[C@@H]3CCCN43)CC2)cc1 [Compound 32, (S)-3-((4-p-tolylpiperazin-1-yl)methyl)-6a,7,8,9-tetrahydropyrido[3,2-e]pyrrolo[1,2-a]pyrazin-6(5H)-one]",≧0
11,"N#Cc1ccc(N2CCN(Cc3cnc4c(c3)NC(=O)C3COCCN43)CC2)nc1 (stereo not drawn) [Compound 100, 6-(4-((6-oxo-5,6,6a,7,9,10-hexahydro-[1,4]oxazino[4,3-a]pyrido[3,2-e]pyrazin-3-yl)methyl)piperazin-1-yl)nicotinonitrile]",>10
12,"N#Cc1c(F)cc(N2CCN(Cc3cnc4c(c3)NC(=O)[C@@H]3CCCN43)CC2)cc1F [Compound 19, (S)-2,6-difluoro-4-(4-((6-oxo-5,6,6a,7,8,9-hexahydropyrido[3,2-e]pyrrolo[1,2-a]pyrazin-3-yl)methyl)piperazin-1-yl)benzonitrile]",≧0
13,"COc1ccc(N2CCN(Cc3cnc4c(c3)NC(=O)[C@@H]3CCCN43)CC2)cc1 [Compound 31, (S)-3-((4-(4-methoxyphenyl)piperazin-1-yl)methyl)-6a,7,8,9-tetrahydropyrido[3,2-e]pyrrolo[1,2-a]pyrazin-6(5H)-one]",≧0
14,"O=C(NC1CC1)c1ccc(N2CCN(Cc3cnc4c(c3)NC(=O)[C@@H]3CCCN43)CC2)nc1 [Compound 8, (S)—N-cyclopropyl-6-(4-((6-oxo-5,6,6a,7,8,9-hexahydropyrido[3,2-e]pyrrolo[1,2-a]pyrazin-3-yl)methyl)piperazin-1-yl)nicotinamide]",>10
15,"CN1CCN2c3ncc(CN4CCN(c5ccc(Cl)cc5)CC4)cc3NC(=O)C2C1 (stereo not drawn) [Compound 97, 7-[4-(4-Chloro-phenyl)-piperazin-1-ylmethyl]-2-methyl-1,3,4,10a-tetrahydro-2H,9H-2,4a,5,9-tetraaza-phenanthren-10-one]",≧0
16,"O=C1Nc2cc(CN3CC=C(c4ccc(Cl)cc4)CC3)cnc2N2CCSC[C@@H]12 [Compound 91, (R)-3-((4-(4-chlorophenyl)-5,6-dihydropyridin-1(2H)-yl)methyl)-6a,7,9,10-tetrahydropyrido[3,2-e][1,4]thiazino[4,3-a]pyrazin-6(5H)-one]",>2000
17,"CC(=O)c1ccc(N2CCN(Cc3cnc4c(c3)NC(=O)[C@@H]3CCCN43)CC2)cc1 [Compound 25, (S)-3-((4-(4-acetylphenyl)piperazin-1-yl)methyl)-6a,7,8,9-tetrahydropyrido[3,2-e]pyrrolo[1,2-a]pyrazin-6(5H)-one]",≧0
18,"CCNC(=O)c1ccc(N2CCN(Cc3cnc4c(c3)NC(=O)[C@@H]3CCCN43)CC2)nc1 [Compound 7, (S)—N-ethyl-6-(4-((6-oxo-5,6,6a,7,8,9-hexahydropyrido[3,2-e]pyrrolo[1,2-a]pyrazin-3-yl)methyl)piperazin-1-yl)nicotinamide]",>10
19,"O=C1Nc2cc(CN3CCN(c4cccc(F)c4)CC3)cnc2N2CCC[C@@H]12 [Compound 38, (S)-3-((4-(3-fluorophenyl)piperazin-1-yl)methyl)-6a,7,8,9-tetrahydropyrido[3,2-e]pyrrolo[1,2-a]pyrazin-6(5H)-one]",≧0
20,"O=C1Nc2cc(CN3CCN(c4ccc(Cl)cc4)CC3)cnc2N2CCOCC12 (stereo not drawn) [Compound 93, 3-((4-(4-chlorophenyl)piperazin-1-yl)methyl)-6a,7,9,10-tetrahydro-[1,4]oxazino[4,3-a]pyrido[3,2-e]pyrazin-6(5H)-one]",≧0
21,"O=C1Nc2cc(CN3CC=C(c4ccc(Cl)cc4)CC3)cnc2N2CCC[C@H]12 [Compound 49, (R)-3-((4-(4-chlorophenyl)-5,6-dihydropyridin-1(2H)-yl)methyl)-6a,7,8,9-tetrahydropyrido[3,2-e]pyrrolo[1,2-a]pyrazin-6(5H)-one]",≧0
22,"CCOC(=O)c1ccc(N2CCN(Cc3cnc4c(c3)NC(=O)[C@@H]3CCCN43)CC2)nc1 [Compound 6A, (S)-ethyl 6-(4-((6-oxo-5,6,6a,7,8,9-hexahydropyrido[3,2-e]pyrrolo[1,2-a]pyrazin-3-yl)methyl)piperazin-1-yl)nicotinate]",≧0
23,"N#Cc1ncc(N2CCN(Cc3cnc4c(c3)NC(=O)[C@@H]3CCCN43)CC2)cc1F [Compound 22, (S)-3-fluoro-5-(4-((6-oxo-5,6,6a,7,8,9-hexahydropyrido[3,2-e]pyrrolo[1,2-a]pyrazin-3-yl)methyl)piperazin-1-yl)picolinonitrile]",>10
24,"O=C1Nc2cc(CN3CCN(c4ccc(Cl)cc4)CC3)cnc2N2CCC[C@H]12 [Compound 50, (R)-3-((4-(4-chlorophenyl)piperazin-1-yl)methyl)-6a,7,8,9-tetrahydropyrido[3,2-e]pyrrolo[1,2-a]pyrazin-6(5H)-one]",≧0
25,"N#Cc1cc(F)c(N2CCN(Cc3cnc4c(c3)NC(=O)[C@@H]3CCCN43)CC2)c(F)c1 [Compound 20, (S)-3,5-difluoro-4-(4-((6-oxo-5,6,6a,7,8,9-hexahydropyrido[3,2-e]pyrrolo[1,2-a]pyrazin-3-yl)methyl)piperazin-1-yl)benzonitrile]",≧0
26,"O=C(NC1CC1)c1ccc(N2CCN(Cc3cnc4c(c3)NC(=O)[C@@H]3CCCCN43)CC2)nc1 [Compound 79, (S)—N-cyclopropyl-6-(4-((6-oxo-6,6a,7,8,9,10-hexahydro-5H-dipyrido[1,2-a:3′,2′-e]pyrazin-3-yl)methyl)piperazin-1-yl)nicotinamide]",>10
27,"O=C1Nc2cc(CN3CCN(c4ccccn4)CC3)cnc2N2CCC[C@@H]12 [Compound 26, (S)-3-((4-(pyridin-2-yl)piperazin-1-yl)methyl)-6a,7,8,9-tetrahydropyrido[3,2-e]pyrrolo[1,2-a]pyrazin-6(5H)-one]",>10
28,"CNC(=O)c1ccc(N2CCN(Cc3cnc4c(c3)NC(=O)[C@@H]3CSCCN43)CC2)cc1 [Compound 98, (R)—N-methyl-4-(4-((6-oxo-5,6,6a,7,9,10-hexahydropyrido[3,2-e][1,4]thiazino[4,3-a]pyrazin-3-yl)methyl)piperazin-1-yl)benzamide]",>5000
29,"O=C(NC1CC1)c1ccc(N2CCN(Cc3cnc4c(c3)NC(=O)[C@@H]3CSCCN43)CC2)cc1 [Compound 99, (R)—N-cyclopropyl-4-(4-((6-oxo-5,6,6a,7,9,10-hexahydropyrido[3,2-e][1,4]thiazino[4,3-a]pyrazin-3-yl)methyl)piperazin-1-yl)benzamide]",>5000
30,"O=C1Nc2cc(CN3CCN(c4ccccc4)CC3)cnc2N2CCC[C@@H]12 [Compound 23, (S)-3-((4-phenylpiperazin-1-yl)methyl)-6a,7,8,9-tetrahydropyrido[3,2-e]pyrrolo[1,2-a]pyrazin-6(5H)-one]",≧0

# Reference: US9187497B2, “Substituted pyrido[3,2-e]pyrrolo[1,2-a]pyrazines as inhibitors of poly(ADP-ribose)polymerase (PARP)” (Takeda Phamaceutical Company Limited, priority 2009, dated 2015)
